Assay results as given in publication PMC11944670, “Reshaping [^99mTc]Tc-DT11 to DT14D Tagged with Trivalent Radiometals for NTS1R-Positive Cancer Theranostics” (Pharmaceutics, 2025).
Residues, ends and D or L forms follow the SMILES beside them. *: point of attachment. DOTA = O=C(O)CN1CCN(CC(=O)O)CCN(CC(=O)*)CCN(CC(=O)O)CC1; X1 = Cc1ccc(CCCC(=O)NCCOCCOCCOCCOCC(=O)*)cc1; βAla = NCCC(=O)O

Target: T1, human NTS1R (Homo sapiens, UniProt P30989)
T1 construct: in membrane homogenates obtained from WiDr cells; endogenous in cells; host or cells: WiDr cells (membrane homogenates)
Experiment: Competitive binding against [125I]I-Tyr3-NT in WiDr cell membrane homogenates
Conditions: displacement of [125I]I-Tyr3-NT, WiDr cell membranes, mean ± sd, n = 3
Description: The affinity of metal-free D[…] and metal-tagged [^natGa]Ga/[^natIn]In/[^natLu]Lu-D[…] (Supplementary Materials) for the human NTS1R was evaluated via competitive binding assays. These assays were performed using the [^125I]I-Tyr^3-NT radioligand in membrane homogenates obtained from WiDr cells, which were stored at -80 °C in 100 μL aliquots of Tris/EDTA buffer (10 mM Tris, 0.1 mM EDTA, pH 7.4). On the day of the experiment, the membrane homogenates were thawed, combined, and diluted in ice-cold binding buffer (BB: 50 mM HEPES, 5.5 mM MgCl2, 0.1 mg/mL bacitracin, 1% w/v BSA, pH 7.4). Each of the above ligands (including NT as a control) was incubated in triplicate at increasing concentrations (ranging from 10^-13 M to 10^-6 M in BB, 30 μL) with [^125I]I-Tyr^3-NT (214 pM in 70 μL BB) and membrane homogenate (300 μL in BB) for 1 h at 22 °C in an Incubator-Orbital Shaker unit (MPM Instr. SrI, Bernareggio, Milan, Italy). […] The filters were washed with ice-cold washing buffer (WB, 10 mM HEPES pH 7.4, 150 mM NaCl), collected individually, placed in separate RIA tubes, and measured for their radioactivity content in a gamma counter (automated multi-sample well-type instrument with a NaI(Tl) 3'' crystal, Canberra Packard Cobra^TM Quantum U5003/1, Auto-Gamma® counting system; Canberra Packard Central Europe GmbH, Schwadorf, Austria). […]

T1 sequence (P30989 whole entry): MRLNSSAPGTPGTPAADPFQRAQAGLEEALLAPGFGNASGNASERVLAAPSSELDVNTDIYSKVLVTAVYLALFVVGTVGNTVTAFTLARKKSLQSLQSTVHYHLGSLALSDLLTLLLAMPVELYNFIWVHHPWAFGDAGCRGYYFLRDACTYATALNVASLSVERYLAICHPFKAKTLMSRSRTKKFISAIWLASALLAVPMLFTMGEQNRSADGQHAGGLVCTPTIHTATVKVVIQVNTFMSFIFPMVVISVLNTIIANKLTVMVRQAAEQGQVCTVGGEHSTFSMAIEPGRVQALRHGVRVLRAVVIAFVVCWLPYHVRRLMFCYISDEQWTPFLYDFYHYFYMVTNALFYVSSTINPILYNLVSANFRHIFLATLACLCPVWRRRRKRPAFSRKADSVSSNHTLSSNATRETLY

## CC[C@H](C)[C@H](NC(=O)[C@H](Cc1ccc(O)cc1)NC(=O)[C@@H]1CCCN1C(=O)[C@H](CCCNC(=N)N)NC(=O)[C@H](CCCNC(=N)N)NC(=O)[C@H](CCCCNC(=O)COCCOCCOCCOCCNC(=O)CCCc1ccc(C)cc1)NC(=O)CCNC(=O)CCNC(=O)CCNC(=O)CN1CCN(CC(=O)O)CCN(CC(=O)O)CCN(CC(=O)O)CC1)C(=O)N[C@@H](CC(C)C)C(=O)O [DT14D, DOTA-βAla-βAla-βAla-Lys(MPBA-PEG4)^7-Arg-Arg-Pro-Tyr-Ile-Leu-OH] ({DOTA-βAla-βAla-βAla}-K(X1)RRPYIL-OH)
  IC50: 2.56 ± 0.26 nM
